One assay concerns the target Ba/F3-TEL-FGFR2 (Homo sapiens, UniProt P21802+P41212). Nature of the assay: Cell viability (proliferation inhibition) of Ba/F3 cells, CellTiter Glo. Particulars: read-out: Ba/F3 cell FGFR2 (IC50 nM), 72 h. For orientation: In ATP-based viability assays light output follows the ATP content of the culture.
A further assay has as its target Ba/F3-TEL-FGFR1 (Homo sapiens, UniProt P11362+P41212). Described as above. Particulars: read-out: Ba/F3 cell FGFR1 (IC50 nM), 72 h.

Chain of Ba/F3-TEL-FGFR1 (P11362 478-767 limits assumed, one chain of several): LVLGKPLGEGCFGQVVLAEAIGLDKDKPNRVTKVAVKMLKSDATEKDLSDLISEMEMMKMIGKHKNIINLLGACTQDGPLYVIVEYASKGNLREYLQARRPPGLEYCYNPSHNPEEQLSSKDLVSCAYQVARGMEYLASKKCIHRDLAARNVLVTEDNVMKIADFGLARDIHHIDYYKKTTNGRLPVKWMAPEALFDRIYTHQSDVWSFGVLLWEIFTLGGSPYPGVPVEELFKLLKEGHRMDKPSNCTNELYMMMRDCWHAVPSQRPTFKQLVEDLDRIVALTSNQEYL
Chain of Ba/F3-TEL-FGFR2 (P21802 481-770 limits assumed, one chain of several): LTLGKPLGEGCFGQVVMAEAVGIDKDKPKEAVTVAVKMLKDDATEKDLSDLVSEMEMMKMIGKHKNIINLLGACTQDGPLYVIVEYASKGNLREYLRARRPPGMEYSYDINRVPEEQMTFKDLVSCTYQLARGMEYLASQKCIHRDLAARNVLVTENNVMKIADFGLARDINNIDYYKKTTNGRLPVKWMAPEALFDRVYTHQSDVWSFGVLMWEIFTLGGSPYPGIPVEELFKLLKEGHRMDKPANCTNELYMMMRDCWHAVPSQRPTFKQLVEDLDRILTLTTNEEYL

With `C=C(C)C(=O)Nc1ccc(-c2c(-c3ccc(N=S4(=O)CCCC4)c(C(F)F)c3)c3c(N)ncnc3n2C)c(F)c1` [Compound 89, N-(4-(4-amino-5-(3-(difluoromethyl) -4-((1-tetrahydro-1λ^6-thiophene-1-ylidene)amino)phenyl) -7-methyl-7H-pyrrolo [2,3-d]pyrimidin-6-yl) -3-fluorophenyl) methacrylamide], the values for the IC50 on Ba/F3-TEL-FGFR2 and at Ba/F3-TEL-FGFR1 were 6.5 nM and 686 nM, respectively.

On to `C=C(C)C(=O)Nc1ccc(-c2c(-c3ccc(N=S4(=O)CCC4)c(F)c3)c3c(N)ncnc3n2C)c(C)c1` [Compound 70], for which the IC50 came to 2.7 nM on Ba/F3-TEL-FGFR2 and 775 nM at Ba/F3-TEL-FGFR1.

As for `[2H]C([2H])([2H])n1c(-c2ccc(NC(=O)C(=C)C)cc2Cl)c(-c2ccc(N=S3(=O)CCC3)c(Cl)c2)c2c(N)ncnc21` [Compound 95, N-(4-(4-amino-5-(3-chloro-4-((1-oxo-1 λ^6-thietan-1-ylidene)amino)phenyl) -7-(methyl-d3) -7H-pyrrolo [2,3-d]pyrimidin-6-yl) -3-chlorophenyl) methacrylamide], the IC50 at Ba/F3-TEL-FGFR2 came out at 0.7 nM; at Ba/F3-TEL-FGFR1, 484 nM.

Turning to `C=C(C)C(=O)Nc1ccc(-c2c(-c3ccc(N=S4(=O)CCCC4)cc3)c3c(N)ncnc3n2C)cc1` [Compound 31], the IC50 at Ba/F3-TEL-FGFR2 turned out to be 8.3 nM; on Ba/F3-TEL-FGFR1, 2090 nM.

Take `C=C(C)C(=O)Nc1ccc(-c2c(-c3ccc(N=S4(=O)CCC4)c(F)c3)c3c(N)ncnc3n2C)c(F)c1` [Compound 75]: the IC50 on Ba/F3-TEL-FGFR2 was 0.8 nM; on Ba/F3-TEL-FGFR1 it was 701 nM.

Consider `[2H]C([2H])([2H])n1c(-c2ccc(NC(=O)C(=C)C)cc2F)c(-c2ccc(N=S3(=O)CCCC3)c(Cl)c2)c2c(N)ncnc21` [Compound 82, N-(4-(4-amino-5-(3-chloro-4-((1-oxidetetrahydro-1λ^6-thiophene-1-ylidene)amino)phenyl)-7-(methyl-d3)-7H-pyrrolo[2,3-d]pyrimidin-6-yl)-3-fluorophenyl) methacrylamide], for which the IC50 came to 0.8 nM at Ba/F3-TEL-FGFR2 and 484 nM on Ba/F3-TEL-FGFR1.

`[2H]C([2H])([2H])n1c(-c2ccc(NC(=O)C(=C)C)cc2Cl)c(-c2ccc(N=S3(=O)CCC3)c(F)c2)c2c(N)ncnc21` [Compound 84, N-(4-(4-amino-5-(3-fluoro-4-(1-oxo-1λ^6-thietan-1-imino)phenyl)-7-(methyl-d3)-7H-pyrrolo[2,3-d]pyrimidin-6-yl)-3-chlorophenyl)methacrylamide]: the IC50 amounted to 0.8 nM on Ba/F3-TEL-FGFR2 and 250 nM at Ba/F3-TEL-FGFR1.

`C=C(C)C(=O)Nc1ccc(-c2c(-c3ccc(N=S(C)(C)=O)cc3)c3c(N)ncnc3n2C)c(F)c1` [Compound 107]: the IC50 is 15.6 nM on Ba/F3-TEL-FGFR2 and 3630 nM at Ba/F3-TEL-FGFR1.

Regarding `C=C(C)C(=O)Nc1ccc(-c2c(-c3ccc(N=S4(=O)CCCC4)c(F)c3)c3c(N)ncnc3n2C)c(C(F)F)c1` [Compound 59, N-(4-(4-amino-5-(3-fluoro-4-((1-oxotetrahydro-1 λ^6-thiophene-1-ylidene)amino)phenyl) -7-methyl-7H-pyrrolo [2,3-d]pyrimidin-6-yl) -3-(difluoromethyl)phenyl) methacrylamide], the values for the IC50 on Ba/F3-TEL-FGFR2 and at Ba/F3-TEL-FGFR1 were 7.8 nM and 1320 nM, respectively.

For the molecule `C=C(C)C(=O)Nc1ccc(-c2c(-c3cc(F)c(N=S4(=O)CCC4)cc3F)c3c(N)ncnc3n2C)c(F)c1` [Compound 77, N-(4-(4-amino-5-(2,5-difluoro-4-((1-oxo-1λ^6-thiocyclobutan-1-ylidene)amino)phenyl) -7-methyl-7H-pyrrolo [2,3-d]pyrimidin-6-yl) -3-fluorophenyl) methacrylamide], the IC50 on Ba/F3-TEL-FGFR2 amounted to 4.7 nM; on Ba/F3-TEL-FGFR1, 884 nM.

Take `C=C(C)C(=O)Nc1ccc(-c2c(-c3ccc(N=S4(=O)CCCC4)c(C)c3)c3c(N)ncnc3n2C)c(F)c1` [Compound 87, N-(4-(4-amino-7-methyl-5-(3-methyl-4-((1-tetrahydro-1λ^6-thiophene-1-ylidene)amino)phenyl) -7H-pyrrolo [2,3-d]pyrimidin-6-yl) -3-fluorophenyl) methacrylamide]: the IC50 on Ba/F3-TEL-FGFR2 came out at 2.1 nM; on Ba/F3-TEL-FGFR1 it was 666 nM.

For the origin of these results see EP4553077A1 (Kinoteck Therapeutics Co., Ltd, priority 2022, dated 2024).
